According to PubChem BioAssay AID1259407 (Chemical Carcinogenesis Research Information System (CCRIS), 2018):
Active and inactive are the calls of the source. No rule for the calls is given here.

Tested on: CCRIS mutagenicity, Ames/micronucleus/aberration tests
Assay: CCRIS mutagenicity studies
[1] = Test System: AMES SALMONELLA TYPHIMURIUM, Strain/Indicator: TA98, Metabolic Activation: NONE, Method: PREINCUBATION
[2] = Test System: AMES SALMONELLA TYPHIMURIUM, Strain/Indicator: TA98, Metabolic Activation: NONE, Method: STANDARD PLATE
[3] = Test System: AMES SALMONELLA TYPHIMURIUM, Strain/Indicator: TA100, Metabolic Activation: NONE, Method: PREINCUBATION
[4] = Test System: AMES SALMONELLA TYPHIMURIUM, Strain/Indicator: TA100, Metabolic Activation: NONE, Method: STANDARD PLATE
[5] = Test System: AMES SALMONELLA TYPHIMURIUM, Strain/Indicator: TA100, Metabolic Activation: RAT, LIVER, S-9, AROCLOR 1254, Method: STANDARD PLATE
[6] = Test System: AMES SALMONELLA TYPHIMURIUM, Strain/Indicator: TA1537, Metabolic Activation: NONE, Method: STANDARD PLATE

## Nc1ccccc1[N+](=O)[O-]
End Point: IN VITRO CHROMOSOMAL ABERRATIONS, Test System: CHL CELLS, Metabolic Activation: RAT, LIVER, S-9, SODIUM PHENOBARBITAL AND 5,6-BENZOFLAVONE
  mutagenic call: active; positive (structural changes)
End Point: IN VITRO MICRONUCLEUS, Test System: CHL/IU CELLS, Metabolic Activation: NONE
  mutagenic call: inactive; negative
Test System: AMES SALMONELLA TYPHIMURIUM, Strain/Indicator: TA97, Metabolic Activation: NONE
  mutagenic call: inactive; negative
Test System: AMES SALMONELLA TYPHIMURIUM, Strain/Indicator: TA97, Metabolic Activation: RAT, LIVER, S-9, AROCLOR 1254
  mutagenic call: inactive; negative
Test System: AMES SALMONELLA TYPHIMURIUM, Strain/Indicator: TA98, Metabolic Activation: HAMSTER, LIVER, S-9, AROCLOR 1254, FLAVIN MONONUCLEOTIDE, Method: PREINCUBATION
  mutagenic call: active; positive
Test System: AMES SALMONELLA TYPHIMURIUM, Strain/Indicator: TA98, Metabolic Activation: HAMSTER, LIVER, S-9, AROCLOR 1254, Method: PREINCUBATION
  mutagenic call: inactive; negative
Test System: AMES SALMONELLA TYPHIMURIUM, Strain/Indicator: TA98, Metabolic Activation: NONE
  mutagenic call: inactive; negative
[1]
  mutagenic call: inactive; negative
[2]
  mutagenic call: inactive; negative
Test System: AMES SALMONELLA TYPHIMURIUM, Strain/Indicator: TA98, Metabolic Activation: RAT, LIVER, S-9, AROCLOR 1254
  mutagenic call: inactive; negative
Test System: AMES SALMONELLA TYPHIMURIUM, Strain/Indicator: TA98, Metabolic Activation: RAT, LIVER, S-9, AROCLOR 1254, FLAVIN MONONUCLEOTIDE, Method: PREINCUBATION
  mutagenic call: inactive; negative
Test System: AMES SALMONELLA TYPHIMURIUM, Strain/Indicator: TA98, Metabolic Activation: RAT, LIVER, S-9, AROCLOR 1254, Method: STANDARD PLATE
  mutagenic call: inactive; negative
Test System: AMES SALMONELLA TYPHIMURIUM, Strain/Indicator: TA98, Metabolic Activation: RAT, LIVER, S-9, KANECHLOR 500, Method: PREINCUBATION
  mutagenic call: inactive; negative
Test System: AMES SALMONELLA TYPHIMURIUM, Strain/Indicator: TA98, Method: PREINCUBATION
  mutagenic call: inactive; negative
Test System: AMES SALMONELLA TYPHIMURIUM, Strain/Indicator: TA100, Metabolic Activation: NONE
  mutagenic call: inactive; negative
[3]
  mutagenic call: inactive; negative
[4]
  mutagenic call: inactive; negative
Test System: AMES SALMONELLA TYPHIMURIUM, Strain/Indicator: TA100, Metabolic Activation: RAT, LIVER, S-9, AROCLOR 1254
  mutagenic call: inactive; negative
[5]
  mutagenic call: inactive; negative
Test System: AMES SALMONELLA TYPHIMURIUM, Strain/Indicator: TA100, Metabolic Activation: RAT, LIVER, S-9, KANECHLOR 500, Method: PREINCUBATION
  mutagenic call: inactive; negative
Test System: AMES SALMONELLA TYPHIMURIUM, Strain/Indicator: TA100, Method: PREINCUBATION
  mutagenic call: inactive; negative
Test System: AMES SALMONELLA TYPHIMURIUM, Strain/Indicator: TA102, Metabolic Activation: NONE
  mutagenic call: inactive; negative
Test System: AMES SALMONELLA TYPHIMURIUM, Strain/Indicator: TA102, Metabolic Activation: RAT, LIVER, S-9, AROCLOR 1254
  mutagenic call: inactive; negative
Test System: AMES SALMONELLA TYPHIMURIUM, Strain/Indicator: TA1535, Metabolic Activation: NONE, Method: PREINCUBATION
  mutagenic call: inactive; negative
Test System: AMES SALMONELLA TYPHIMURIUM, Strain/Indicator: TA1535, Metabolic Activation: NONE, Method: STANDARD PLATE
  mutagenic call: inactive; negative
Test System: AMES SALMONELLA TYPHIMURIUM, Strain/Indicator: TA1535, Metabolic Activation: RAT, LIVER, S-9, AROCLOR 1254, Method: STANDARD PLATE
  mutagenic call: inactive; negative
Test System: AMES SALMONELLA TYPHIMURIUM, Strain/Indicator: TA1535, Method: PREINCUBATION
  mutagenic call: inactive; negative
Test System: AMES SALMONELLA TYPHIMURIUM, Strain/Indicator: TA1537, Metabolic Activation: NONE, Method: PREINCUBATION
  mutagenic call: inactive; negative
[6]
  mutagenic call: inactive; negative
Test System: AMES SALMONELLA TYPHIMURIUM, Strain/Indicator: TA1537, Metabolic Activation: RAT, LIVER, S-9, AROCLOR 1254, Method: STANDARD PLATE
  mutagenic call: inactive; negative
Test System: AMES SALMONELLA TYPHIMURIUM, Strain/Indicator: TA1537, Method: PREINCUBATION
  mutagenic call: inactive; negative
Test System: AMES SALMONELLA TYPHIMURIUM, Strain/Indicator: TA1538, Metabolic Activation: NONE, Method: PREINCUBATION
  mutagenic call: inactive; negative
Test System: AMES SALMONELLA TYPHIMURIUM, Strain/Indicator: TA1538, Metabolic Activation: NONE, Method: STANDARD PLATE
  mutagenic call: inactive; negative
Test System: AMES SALMONELLA TYPHIMURIUM, Strain/Indicator: TA1538, Metabolic Activation: RAT, LIVER, S-9, AROCLOR 1254, Method: STANDARD PLATE
  mutagenic call: inactive; negative
Test System: AMES SALMONELLA TYPHIMURIUM, Strain/Indicator: TA1538, Method: PREINCUBATION
  mutagenic call: inactive; negative
Test System: UDS RODENT HEPATOCYTES, Strain/Indicator: THY INCORP (NON-S-PHASE), Metabolic Activation: NONE, Method: AUTORADIOGRAPHY
  mutagenic call: inactive; negative

## O=[N+]([O-])c1cc2c(ccc3cc(N(CCCl)CCCl)ccc32)o1
Test System: AMEA SALMONELLA TYPHIMURIUM, Strain/Indicator: TA100(NR), Metabolic Activation: NONE, Method: STANDARD PLATE
  mutagenic call: active; positive
Test System: AMES SALMONELLA TYPHIMURIUM, Strain/Indicator: TA100(NR), Metabolic Activation: RAT, LIVER, S-9, AROCLOR 1254, Method: STANDARD PLATE
  mutagenic call: active; positive
[4]
  mutagenic call: active; positive
[5]
  mutagenic call: active; positive

## Cc1ccc(C=O)o1
[1]
  mutagenic call: inactive; negative
[2]
  mutagenic call: inactive; negative
Test System: AMES SALMONELLA TYPHIMURIUM, Strain/Indicator: TA98, Metabolic Activation: RAT, LIVER, S-9, AROCLOR 1254, Method: PREINCUBATION
  mutagenic call: inactive; negative
Test System: AMES SALMONELLA TYPHIMURIUM, Strain/Indicator: TA98, Metabolic Activation: S-9, Method: STANDARD PLATE
  mutagenic call: inactive; negative
[3]
  mutagenic call: inactive; negative
[4]
  mutagenic call: inactive; negative
Test System: AMES SALMONELLA TYPHIMURIUM, Strain/Indicator: TA100, Metabolic Activation: RAT, LIVER, S-9, AROCLOR 1254, Method: PREINCUBATION
  mutagenic call: inactive; negative
Test System: AMES SALMONELLA TYPHIMURIUM, Strain/Indicator: TA100, Metabolic Activation: S-9, Method: STANDARD PLATE
  mutagenic call: inactive; negative
Test System: AMES SALMONELLA TYPHIMURIUM, Strain/Indicator: TA102, Metabolic Activation: NONE, Method: PREINCUBATION
  mutagenic call: inactive; negative
Test System: AMES SALMONELLA TYPHIMURIUM, Strain/Indicator: TA102, Metabolic Activation: RAT, LIVER, S-9, AROCLOR 1254, Method: PREINCUBATION
  mutagenic call: inactive; negative

## CC(C)(C)OC(=O)N/N=C/c1c[n+]([O-])c2ccccc2[n+]1[O-]
[1]
  mutagenic call: active; positive
Test System: AMES SALMONELLA TYPHIMURIUM, Strain/Indicator: TA98, Metabolic Activation: S-9, Method: PREINCUBATION
  mutagenic call: active; positive
[3]
  mutagenic call: active; positive
Test System: AMES SALMONELLA TYPHIMURIUM, Strain/Indicator: TA100, Metabolic Activation: S-9, Method: PREINCUBATION
  mutagenic call: active; positive
Test System: E. COLI, Strain/Indicator: WP2 UVRA (PKM101), Metabolic Activation: NONE
  mutagenic call: active; positive
Test System: E. COLI, Strain/Indicator: WP2 UVRA (PKM101), Metabolic Activation: S-9
  mutagenic call: active; positive

## Cc1cc([N+](=O)[O-])c(C)c2c1[nH]c1ccc(O)cc12
[2]
  mutagenic call: active; positive
Test System: AMES SALMONELLA TYPHIMURIUM, Strain/Indicator: TA98, Metabolic Activation: RAT LIVER S-9, AROCLOR 1254, Method: STANDARD PLATE
  mutagenic call: inactive; negative
[4]
  mutagenic call: inactive; negative
Test System: AMES SALMONELLA TYPHIMURIUM, Strain/Indicator: TA100, Metabolic Activation: RAT LIVER S-9, AROCLOR 1254, Method: STANDARD PLATE
  mutagenic call: inactive; negative
[6]
  mutagenic call: active; positive
Test System: AMES SALMONELLA TYPHIMURIUM, Strain/Indicator: TA1537, Metabolic Activation: RAT LIVER S-9, AROCLOR 1254, Method: STANDARD PLATE
  mutagenic call: active; positive
Test System: AMES SALMONELLA TYPHIMURIUM, Strain/Indicator: TA1977, Metabolic Activation: NONE, Method: STANDARD PLATE
  mutagenic call: active; positive
Test System: AMES SALMONELLA TYPHIMURIUM, Strain/Indicator: TA1977, Metabolic Activation: RAT LIVER S-9, AROCLOR 1254, Method: STANDARD PLATE
  mutagenic call: active; positive
